Results reported in patent US20180177845A1, “METHOD FOR TREATMENT OR PREVENTION OF A CANCER” (priority 2016, published 2018).
Where no end group is shown, it is not given here.

Legend:
β4 integrin/FAK complex [1] = assay: immunoprecipitation of β4 integrin and FAK in HCT-116 cells; assay type: cell-based, human
Experimental: (§1) Cells or tissue samples were homogenized and extracted for Western blotting. For immunoprecipitation, proteins were incubated with antibodies as indicated at 4° C. overnight, followed by incubation for 4 hrs with protein A-Sepharose 4B beads (Sigma-Aldrich). All experiments were conducted at least three independent times.

HCT-116 cells [2] = assay: anchorage-independent growth assay, HCT-116; assay type: cell-based, human
Experimental: An anchorage-independent growth assay was conducted with several modifications. Briefly, 5×10^4 cells were seeded in a 0.3% agar in DMEM containing 10% FBS over the bottom 0.6% agar layer in DIVIEM. After incubation for 14 days, the number and size of colonies were scored.

MDA-MB-231 cells [3] = assay: anchorage-independent growth in soft agar assay, MDA-MB-231; assay type: cell-based, human; conditions: in comparison with the TAT alone, peptide 10 μM or 50 μM
Experimental: Experiments were performed as previously described'^9, with the following modifications. A total of 5×10^4 cells were seeded in 0.3% agar in DMEM plus 10% […] and EGF (10 ng/ml) over the bottom 0.6% agar layer in DMEM. After incubation for 14 days, the number of colonies was scored.

β4 integrin/FAK complex [4] = assay: co-immunoprecipitation of β4 integrin and FAK in MDA-MB-231 cells; assay type: cell-based, human
Experimental: (§2) Various plasmid-transfected or pharmacologically treated cells or tissue samples were homogenized and extracted for Western blot analyses. About 10-20 μg whole cell lysate were used for Western blotting. A 1 mg/ml concentration of total protein from cell lysates was employed for immunoprecipitation. Some extracts subjected to immunoprecipitation were incubated with antibodies, as indicated, for 4 h at 4° C., followed by incubation for 4 h or overnight with protein A-Sepharose 4B or protein G-Sepharose beads (Sigma-Aldrich) before proceeding to Western blot analysis. Each experiment was repeated at least three independent times.

FAK phospho-Tyr397 = assay: Western blot of FAK phospho-Tyr397 in MDA-MB-231 cells; assay type: cell-based, human
Experimental: as §2

β4 integrin at Tyr1526 = assay: Western blot of β4 integrin tyrosine phosphorylation in MDA-MB-231 cells; assay type: cell-based, human; conditions: 10 μM
Experimental: as §2

[5] = tested on: FAK autophosphorylation at Tyr397; assay: Western blot of FAK autophosphorylation at Tyr397 in HCT-116 cells; assay type: cell-based, human
Experimental: as §1

NIH3T3 = assay: specificity: β1 integrin-mediated cell migration in NIH3T3; assay type: cell-based, mouse; conditions: overexpressed in NIH3T3
HCT-116 cells [6] = assay: in vivo tumorigenicity, subcutaneous xenograft mouse model; conditions: ectopic expression in HCT-116 cells, subcutaneous in SCID mice; 21 days
Experimental: Here. FAK and FRNK transfectants were used as controls. […] All results are presented as the means ±s.d. from at least three independent experiments (*. p<0.05, compared with the corresponding mock control). […] An in vivo tumorigenicity assay was conducted using a xenograft mouse model by subcutaneously injecting cells described above into SCID mice. Mice were sacrificed 21 days after tumor injection. Tumor mass (left, top), protein expression (left, bottom), and tumor weight (right) of the xenografts were measured. Five mice were assessed for each group (Scale bar, 1 cm. *, p<0.05, compared with the corresponding mock control).

MDA-MB-231 cells [7] = assay: BrdU incorporation cell proliferation assay, MDA-MB-231; assay type: cell-based, human; conditions: MDA-MB-231 transfectants; compared to mock and triple-mutant cells
Experimental: At 24 h after transfection, 2×10^4 cells were serum starved for 24 h. Cells were then washed twice with DMEM and incubated for 16 h in DMEM plus 10% FBS and 100 μM BrdU (Sigma-Aldrich). After that, cells were fixed, permeabilized, heated with DNase I, and processed for immunofluorescence staining, with anti-BrdU (1:200, Sigma-Aldrich) antibody, as described previously^39, with a few modifications. Cells were then counted in multiple fields and scored for BrdU-positive staining in each independent experiment.

MDA-MB-231 cells [8] = assay: in vivo lung metastasis after tail vein injection, bioluminescence; parameters: species or system nude mice; conditions: MDA-MB-231 transfectants, 84 days after injection, vs mock and triple mutant
Experimental: (§3) All mouse experiments were approved by the Institutional Animal Care and Use Committee, National Taiwan University (Taipei, Taiwan). All experimental procedures were performed in accordance with the protocols and the ethical regulations approved by the Institutional Animal Care and Use Committees of National Taiwan University (Taipei, Taiwan). Female nu/nu mice were purchased from the National Laboratory Animal Center (Taipei, Taiwan). For tumorigenesis, 1×10^6 MDA-MB-231 stably transfected pools expressing GFP-tagged FAK/25aa, its triple (FAK/25aa^E380A/K381A/Q382A)or double (FAK/25aa^R385A/S386A) mutant, or a mock transfected control that had been selected by 500 μg/ml G418 for 2 weeks were injected into the 3rd mammary fat pad of eight-week-old female nu/nu mice. Stably transfected pools of each construct were injected in 100 μl PBS. Tumor volumes and numbers were measured at 12 weeks after injection and then excised, photographed, and weighted. For tumor metastasis, 1×10^6 MDA-MB-231 cells, described above, that were labeled with luciferase by lentiviral infection were resuspended in 100 μl PBS and injected into the tail vein of six-week-old female nu/nu mice. Lung metastasis was monitored by bioluminescent imaging using an IVIS spectrum imaging system. Lung metastasis was measured on the respective day after injection.

MDA-MB-231 cells [9] = assay: in vivo tumorigenesis, orthotopic injection into mammary fat pad; conditions: stably expressing MDA-MB-231 cells in mammary fat pad of nude mice; 12 weeks
Experimental: as §3

paxillin/FAK complex = assay: specificity: paxillin/FAK complex in NIH3T3; assay type: cell-based, mouse; conditions: overexpressed in NIH3T3
Chain of paxillin/FAK complex (Q8VI36 whole entry): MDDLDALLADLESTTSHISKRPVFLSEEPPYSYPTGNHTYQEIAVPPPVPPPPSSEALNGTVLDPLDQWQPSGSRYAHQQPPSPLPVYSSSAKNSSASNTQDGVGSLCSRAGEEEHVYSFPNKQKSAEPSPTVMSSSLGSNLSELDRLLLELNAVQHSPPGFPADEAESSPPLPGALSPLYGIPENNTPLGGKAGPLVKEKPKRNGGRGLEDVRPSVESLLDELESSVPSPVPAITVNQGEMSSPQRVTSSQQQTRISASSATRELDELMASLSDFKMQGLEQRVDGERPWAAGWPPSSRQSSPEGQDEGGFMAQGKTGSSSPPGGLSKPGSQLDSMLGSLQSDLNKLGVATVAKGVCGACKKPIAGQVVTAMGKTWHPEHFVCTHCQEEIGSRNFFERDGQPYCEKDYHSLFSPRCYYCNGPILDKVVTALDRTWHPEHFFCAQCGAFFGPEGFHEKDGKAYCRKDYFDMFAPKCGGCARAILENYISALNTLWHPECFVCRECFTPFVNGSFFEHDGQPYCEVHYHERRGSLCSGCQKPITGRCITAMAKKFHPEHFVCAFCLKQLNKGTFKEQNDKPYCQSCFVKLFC
Chain of paxillin/FAK complex (P34152 whole entry, further chain): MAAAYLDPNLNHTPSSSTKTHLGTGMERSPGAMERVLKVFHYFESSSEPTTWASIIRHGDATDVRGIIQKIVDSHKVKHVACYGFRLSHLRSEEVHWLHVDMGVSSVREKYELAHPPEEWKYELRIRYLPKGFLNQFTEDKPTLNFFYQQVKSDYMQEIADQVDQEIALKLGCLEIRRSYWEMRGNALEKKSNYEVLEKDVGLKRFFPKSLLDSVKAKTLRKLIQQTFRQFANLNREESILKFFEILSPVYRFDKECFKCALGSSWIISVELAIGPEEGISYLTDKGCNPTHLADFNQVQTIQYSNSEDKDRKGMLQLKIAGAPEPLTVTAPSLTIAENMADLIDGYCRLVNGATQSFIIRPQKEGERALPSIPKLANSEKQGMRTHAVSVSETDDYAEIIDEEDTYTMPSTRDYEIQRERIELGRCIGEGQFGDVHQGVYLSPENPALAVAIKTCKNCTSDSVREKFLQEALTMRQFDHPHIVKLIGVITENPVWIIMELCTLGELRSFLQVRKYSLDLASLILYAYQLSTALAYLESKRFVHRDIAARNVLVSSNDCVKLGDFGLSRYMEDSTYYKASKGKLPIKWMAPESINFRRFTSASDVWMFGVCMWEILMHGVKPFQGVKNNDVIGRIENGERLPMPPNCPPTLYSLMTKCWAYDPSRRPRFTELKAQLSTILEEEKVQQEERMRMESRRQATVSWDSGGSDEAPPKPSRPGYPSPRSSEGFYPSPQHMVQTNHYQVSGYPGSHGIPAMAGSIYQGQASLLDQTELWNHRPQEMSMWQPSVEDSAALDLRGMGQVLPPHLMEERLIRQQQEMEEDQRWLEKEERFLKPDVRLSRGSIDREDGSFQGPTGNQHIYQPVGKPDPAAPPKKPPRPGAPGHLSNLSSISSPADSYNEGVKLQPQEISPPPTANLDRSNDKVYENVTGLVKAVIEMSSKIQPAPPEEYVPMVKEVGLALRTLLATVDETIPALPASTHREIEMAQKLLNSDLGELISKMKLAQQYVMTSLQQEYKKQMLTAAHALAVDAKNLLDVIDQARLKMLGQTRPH

HCT-116 cells [10] = assay: BrdU incorporation assay, HCT-116; assay type: cell-based, human; conditions: HCT-116 cells overexpressing the peptide
Experimental: A BrdU incorporation assay was performed. Briefly, serum-starved cells were incubated in DMEM with 10% FBS and 100 μM BrdU (Sigma-Aldrich) for 16 hrs. Cells were fixed, permeabilized, treated with DNase I, and processed for immunofluorescence staining with anti-BrdU (Sigma-Aldrich) antibody. The BrdU-positive staining cells were scored.

[11] = target: T1, focal adhesion kinase (FAK) (human, UniProt Q05397 2-1052); assay: HA-tagged β4 fragments in HEK-293 cells (FIG. 9F)
T1 construct: Endogenous FAK in lysates of human cells and tissues; also called full-length FAK; FAX [sic]
T1 sequence (Q05397 2-1052 limits assumed): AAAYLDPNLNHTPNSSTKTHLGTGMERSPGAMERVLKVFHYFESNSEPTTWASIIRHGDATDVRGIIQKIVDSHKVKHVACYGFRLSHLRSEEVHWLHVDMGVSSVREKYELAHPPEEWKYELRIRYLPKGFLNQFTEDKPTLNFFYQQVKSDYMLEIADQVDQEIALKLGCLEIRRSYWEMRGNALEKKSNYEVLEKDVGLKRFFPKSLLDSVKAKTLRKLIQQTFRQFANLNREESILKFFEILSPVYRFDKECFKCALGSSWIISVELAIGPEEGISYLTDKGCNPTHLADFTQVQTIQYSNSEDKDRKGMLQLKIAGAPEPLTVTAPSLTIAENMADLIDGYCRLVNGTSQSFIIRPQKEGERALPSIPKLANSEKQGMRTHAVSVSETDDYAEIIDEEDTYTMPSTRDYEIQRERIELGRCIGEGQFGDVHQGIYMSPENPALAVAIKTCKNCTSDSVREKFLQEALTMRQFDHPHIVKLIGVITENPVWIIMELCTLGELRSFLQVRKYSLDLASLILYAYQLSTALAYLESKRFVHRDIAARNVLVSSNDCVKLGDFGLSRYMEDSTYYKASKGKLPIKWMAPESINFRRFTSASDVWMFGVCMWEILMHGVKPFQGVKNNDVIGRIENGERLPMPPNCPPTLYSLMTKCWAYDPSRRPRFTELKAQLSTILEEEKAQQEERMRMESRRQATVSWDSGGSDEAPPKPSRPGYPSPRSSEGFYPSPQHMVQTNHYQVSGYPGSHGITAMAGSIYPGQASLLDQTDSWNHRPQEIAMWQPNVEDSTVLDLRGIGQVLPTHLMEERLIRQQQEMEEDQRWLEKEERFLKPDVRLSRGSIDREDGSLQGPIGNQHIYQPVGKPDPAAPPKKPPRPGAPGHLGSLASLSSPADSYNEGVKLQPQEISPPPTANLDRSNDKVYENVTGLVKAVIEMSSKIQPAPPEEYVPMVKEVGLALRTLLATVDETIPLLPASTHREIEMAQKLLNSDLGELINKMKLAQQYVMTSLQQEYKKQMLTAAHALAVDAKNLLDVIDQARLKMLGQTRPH

β4 integrin [12] = target: T2, β4 integrin (human, UniProt P16144 28-1822, limits assumed); assay: overexpression in HCT-116 cells
T2 construct: Endogenous full-length β4 integrin in lysates or immunoprecipitates; In cells it is paired with α6 integrin; also called integrin β4; ITGB4
T2 sequence (P16144 28-1822 limits assumed): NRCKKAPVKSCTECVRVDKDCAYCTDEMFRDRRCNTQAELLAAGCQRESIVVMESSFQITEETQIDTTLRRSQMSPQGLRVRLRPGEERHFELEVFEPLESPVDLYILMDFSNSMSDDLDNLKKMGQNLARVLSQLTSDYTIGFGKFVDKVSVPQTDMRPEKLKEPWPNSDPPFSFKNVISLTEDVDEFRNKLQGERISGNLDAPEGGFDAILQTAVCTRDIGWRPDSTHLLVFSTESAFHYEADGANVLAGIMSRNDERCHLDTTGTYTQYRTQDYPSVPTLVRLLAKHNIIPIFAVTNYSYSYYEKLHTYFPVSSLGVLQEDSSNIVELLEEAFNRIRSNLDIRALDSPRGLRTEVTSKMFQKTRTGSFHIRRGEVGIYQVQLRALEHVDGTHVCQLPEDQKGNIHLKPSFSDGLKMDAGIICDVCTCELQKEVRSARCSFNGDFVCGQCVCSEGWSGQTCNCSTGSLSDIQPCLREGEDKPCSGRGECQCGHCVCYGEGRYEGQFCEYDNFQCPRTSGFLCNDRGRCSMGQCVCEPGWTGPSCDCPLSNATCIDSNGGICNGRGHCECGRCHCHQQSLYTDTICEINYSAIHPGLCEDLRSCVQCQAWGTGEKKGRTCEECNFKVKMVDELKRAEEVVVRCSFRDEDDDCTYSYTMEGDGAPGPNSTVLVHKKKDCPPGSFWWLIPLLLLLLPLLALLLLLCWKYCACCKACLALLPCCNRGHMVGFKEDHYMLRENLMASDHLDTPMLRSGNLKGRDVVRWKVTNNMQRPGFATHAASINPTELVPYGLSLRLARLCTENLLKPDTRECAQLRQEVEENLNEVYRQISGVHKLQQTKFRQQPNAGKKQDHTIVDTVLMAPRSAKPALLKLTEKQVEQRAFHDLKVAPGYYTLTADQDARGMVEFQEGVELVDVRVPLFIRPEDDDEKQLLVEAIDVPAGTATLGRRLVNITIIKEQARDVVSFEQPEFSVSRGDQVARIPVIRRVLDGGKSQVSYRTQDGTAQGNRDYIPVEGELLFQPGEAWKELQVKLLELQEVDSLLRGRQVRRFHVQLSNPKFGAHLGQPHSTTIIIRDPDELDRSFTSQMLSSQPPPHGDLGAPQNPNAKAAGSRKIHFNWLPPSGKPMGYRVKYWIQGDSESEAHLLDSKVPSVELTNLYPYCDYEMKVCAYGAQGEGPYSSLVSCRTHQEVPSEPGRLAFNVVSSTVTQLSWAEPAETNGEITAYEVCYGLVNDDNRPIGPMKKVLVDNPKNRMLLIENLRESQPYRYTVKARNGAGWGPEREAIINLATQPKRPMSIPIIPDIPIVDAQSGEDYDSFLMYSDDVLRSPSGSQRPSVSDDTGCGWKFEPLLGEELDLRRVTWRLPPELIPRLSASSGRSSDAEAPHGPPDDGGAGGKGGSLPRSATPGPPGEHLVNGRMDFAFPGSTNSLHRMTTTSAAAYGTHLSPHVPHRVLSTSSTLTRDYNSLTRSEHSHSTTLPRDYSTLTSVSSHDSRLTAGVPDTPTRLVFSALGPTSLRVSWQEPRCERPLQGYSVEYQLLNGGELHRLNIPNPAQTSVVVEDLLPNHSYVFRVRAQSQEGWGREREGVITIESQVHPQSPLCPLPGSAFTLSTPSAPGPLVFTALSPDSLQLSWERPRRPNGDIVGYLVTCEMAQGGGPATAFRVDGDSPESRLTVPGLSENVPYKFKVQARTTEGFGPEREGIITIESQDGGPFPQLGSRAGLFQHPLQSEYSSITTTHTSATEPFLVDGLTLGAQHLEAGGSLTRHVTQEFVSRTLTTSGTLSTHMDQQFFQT

β4 integrin [13] = target: T2, β4 integrin; assay: Ni-bead pull-down from MDA-MB-231 lysate, anti-β4 integrin Western blot (FIG. 1(g))
β4 integrin [14] = target: T2, β4 integrin; assay: GST pull-down from HCT-116 lysate, anti-β4 integrin Western blot (FIG. 9(C))

Molecule: CS(=O)(=O)c1cccc(CNc2nc(Nc3ccc4c(c3)CCC(=O)N4)ncc2C(F)(F)F)c1 [PF-573,228, reference compound]
- β4 integrin/FAK complex formation (β4 integrin/FAK complex [1]; FAK activity inhibited, 10 μM): still formed
- anchorage-independent growth (soft agar) (HCT-116 cells [2]; HCT-116 cells treated with FAK inhibitor, DMSO control): impairs

Molecule: TAT-FAK/25aa: synthesized peptide, FAK/25aa fused with the TAT peptide; sequence GRKKRRQRRRPQLANNEKQGVRSHTVSVSETDDYAE1 (GRKKRRQRRRPQLANNEKQGVRSHTVSVSETDDYAEI)
- foci less formed in soft agar (MDA-MB-231 cells [3]): approximately 30%
- formation of the β4 integrin/FAK complex (β4 integrin/FAK complex [4]; MDA-MB-231 cells, extracellular administration of peptide (10 μM)): capable of alleviating

Molecule: CC(C)(C)n1nc(-c2ccc(Cl)cc2)c2c(N)ncnc21 [PP2]
- phosphorylation level of FAK at Tyr397 (FAK phospho-Tyr397; MDA-MB-231 cells, 10 μM): reduced
- β4 integrin and FAK association in response to EGF stimulation (β4 integrin/FAK complex [1]; EGF stimulation): ablated
- β4 integrin/FAK complex formation (β4 integrin/FAK complex [1]; blockade of Src activity): decrease
- formation of the β4 integrin/FAK complex (β4 integrin/FAK complex [4]; MDA-MB-231 cells, 10 μM, compared to PP3- or DMSO-treated cells): markedly reduced
- interaction between β4 integrin and FAK under EGF stimulation (β4 integrin/FAK complex [4]; serum-starved MDA-MB-231 cells, EGF 10 ng/ml, inhibitor 10 μM): remained absent
- phosphorylation level of β4 integrin at Tyr1526 (β4 integrin at Tyr1526): reduced
- FAK activation in response to EGF stimulation ([5]; HCT-116 cells, EGF stimulation): ablated
- FAK activation ([5]; HCT-116 cells, blockade of Src activity): alleviate

Molecule: FAK/25aa: the 376th to 400th amino acids of FAK, SEQ ID NO: 3; overexpressed GFP-tagged in cells (LANNEKQGVRSHTVSVSETDDYAEI; also: GFP tag)
- β1 integrin-mediated cell migration (NIH3T3): not affected
- FAK phospho-Tyr397 (FAK phospho-Tyr397; transfected MDA-MB-231 cells, in comparison to mock or triple-mutant transfectants): decreased
- interaction between β4 integrin and FAK (β4 integrin/FAK complex [1]; overexpressed motif): ablated
- volume and weight of implanted colon cancer tumors (HCT-116 cells [6]): significantly reduced
- cell proliferation (MDA-MB-231 cells [7]): decreased
- lung metastatic nodules (MDA-MB-231 cells [8]): less-developed
- level of FAK co-immunoprecipitated by β4 integrin (β4 integrin/FAK complex [4]; MDA-MB-231 cells, increased expression of the peptide): attenuated in a dose-dependent manner
- size and weight of tumors (MDA-MB-231 cells [9]): significant reductions
- paxillin/FAK complex (paxillin/FAK complex): not affected
- anchorage-independent growth (HCT-116 cells [2]; HCT-116 transfectants, compared with mock and triple-mutant cells): considerably decreased
- cell proliferation (HCT-116 cells [10]): impaired
- Tyr397-autophosphorylation of FAK ([5]; transfected HCT-116 cells): diminished

B1: β4-CalX (other, UniProt P16144 979-1084, looked up)
chain: VNITIIKEQARDVVSFEQPEFSVSRGDQVARIPVIRRVLDGGKSQVSYRTQDGTAQGNRDYIPVEGELLFQPGEAWKELQVKLLELQEVDSLLRGRQVRRFHVQLS
notes: domain: Na+/Ca2+ exchanger homologous motif (CalX); also called β4 Na+/Ca2+ exchanger homologous motif; HA-tagged β4-CalX; not shown: HA tag of the pKH3 vector
- binding result [11]: no binding

B2: GFP-tagged FAK/25aa^R385A/S386A (peptide)
chain: LANNEKQGVAAHTVSVSETDDYAEI
modifications: also: GFP tag
notes: Positions are printed in full-length FAK numbering; also called double mutant of FAK/25aa; not shown: GFP of the pEGFP vector
- binding result (β4 integrin [12]): binds

B3: His-tagged FAK/N375 (other)
chain: MAAAYLDPNLNHTPSSSAKTHLGTGMERSPGAMERVLKVFHYFENSSEPTTWASIIRHGDATDVRGIIQKIVDCHKVKNVACYGLRLSHLQSEEVHWLHLDMGVSNVREKFELAHPPEEWKYELRIRYLPKGFLNQFTEDKPTLNFFYQQVKNDYMLEIADQVDQEIALKLGCLEIRRSYGEMRGNALEKKSNYEVLEKDVGLRRFFPKSLLDSVKAKTLRKLIQQTFRQFANLNREESILKFFEILSPVYRFDKECFKCALGSSWIISVELAIGPEEGISYLTDKGANPTHLADFNQVQTIQYSNSEDKDRKGMLQLKIAGAPEPLTVTAPSLTIAENMADLIDGYCRLVNGATQSFIIRPQKEGERALPSIPK
notes: Recombinant protein from E. coli; not shown: His tag
- binding result (β4 integrin [13]): no binding

B4: GST-FAK/N375 (other)
chain: B3 chain
notes: Recombinant protein from E. coli; not shown: GST of the pGEX-2T vector
- binding result (β4 integrin [14]): no binding
